US20220315587A1, “COMPOUNDS FOR TREATMENT OF CANCER” (SINOPSEE THERAPEUTICS, priority 2019, published 2022)

How the values were obtained:
[1] = system: BA/F3 cells expressing PDGFR; test: Cell viability by MTS assay (MTS Assay 1); format: cell-based; conditions: for Activity compared to the imatinib and quizartinib controls (cell viability): MTS assay, FIGS. 2 and 3; for IC50: Mus musculus, BaF3, read-out: MTS Assay 1: concentration of compound required to reduce cell viability to 50%
Protocol: FIG. 2 illustrates the effect of the compounds of Examples 1 to 4 on Ba/F3 cells expressing PDGFR. Results for imatinib and quizartinib are provided as positive controls.
(§1) The effect of the compounds on cell viability were determined using MTS assay. MTS Cell Proliferation Assay Kit is a colorimetric method for sensitive quantification of viable cells in proliferation and cytotoxicity assay. The method is based on the reduction of MTS tetrazolium compound by viable cells to generate a colored formazan product that is soluble in cell culture media. BA/F3 cells expressing the receptor tyrosine kinase (either PDGFR [MTS Assay 1] or Flt3 [MTS Assay 2]) were cultured in standard culture conditions in a 96-well microtiter plate (final volume of 200 μl/well) in the absence or presence of the compound to be tested and were incubated for 20-48 hrs. MTS Reagent (20 μl/well) was added into each well & incubated for 0.5-4 hours at 37° C. in standard culture conditions. Absorbance at 490 nm was recorded using a plate reader.
(§2) Results are shown in FIGS. 2 and 3, and Table 2 (where IC50 indicates the concentration of compound required to reduce cell viability to 50%).
(§3) For the MTS Assay, the result indicates the concentration of compound required to reduce cell viability to 50%.

[2] = system: PDGFRβ signaling (PDGFRβ autophosphorylation, Shp2 phosphorylation) in HEK293 cells expressing human PDGFR; test: Western blot of PDGFRβ signaling in HEK293 cell line model; format: cell-based; conditions: 20 ng/ml PDGF, FIG. 1
Protocol: FIG. 1 represents Western-blot analysis result of the compounds of Examples 1 and 2 in relation to inhibition of PDGFRβ and p-SHP2 signalling in HEK293 cells expressing PDGFRβ.
Human Embryonic kidney cells (HEK293) were constructed to express human PDGFRWT under the control of constitutive CMV promoter. Cells were grown in the presence of 20 ng/ml PDGF (the ligand for the PDGFRβ) to activate the PDGFRβ. Different concentrations of the compounds of Examples 1 and 2 were added to study their effect on the PDGFRβ-mediated signaling. Autophosphorylation of PDGFRβ and Shp2 phosphorylation were monitored by Western blotting and were used as the markers for PDGFRβ signaling. β-Actin was used as an internal control.

[3] = target: T1, BA/F3 cells expressing Flt3 (Homo sapiens, UniProt P36888, cells depend on it, form not given); test: Cell viability by MTS assay (MTS Assay 2); format: cell-based; conditions: BA/F3 cells expressing Flt3, 20-48 hrs; symbol after the slash; read-out: MTS Assay 2: concentration of compound required to reduce cell viability to 50%
T1 sequence (P36888 1-993): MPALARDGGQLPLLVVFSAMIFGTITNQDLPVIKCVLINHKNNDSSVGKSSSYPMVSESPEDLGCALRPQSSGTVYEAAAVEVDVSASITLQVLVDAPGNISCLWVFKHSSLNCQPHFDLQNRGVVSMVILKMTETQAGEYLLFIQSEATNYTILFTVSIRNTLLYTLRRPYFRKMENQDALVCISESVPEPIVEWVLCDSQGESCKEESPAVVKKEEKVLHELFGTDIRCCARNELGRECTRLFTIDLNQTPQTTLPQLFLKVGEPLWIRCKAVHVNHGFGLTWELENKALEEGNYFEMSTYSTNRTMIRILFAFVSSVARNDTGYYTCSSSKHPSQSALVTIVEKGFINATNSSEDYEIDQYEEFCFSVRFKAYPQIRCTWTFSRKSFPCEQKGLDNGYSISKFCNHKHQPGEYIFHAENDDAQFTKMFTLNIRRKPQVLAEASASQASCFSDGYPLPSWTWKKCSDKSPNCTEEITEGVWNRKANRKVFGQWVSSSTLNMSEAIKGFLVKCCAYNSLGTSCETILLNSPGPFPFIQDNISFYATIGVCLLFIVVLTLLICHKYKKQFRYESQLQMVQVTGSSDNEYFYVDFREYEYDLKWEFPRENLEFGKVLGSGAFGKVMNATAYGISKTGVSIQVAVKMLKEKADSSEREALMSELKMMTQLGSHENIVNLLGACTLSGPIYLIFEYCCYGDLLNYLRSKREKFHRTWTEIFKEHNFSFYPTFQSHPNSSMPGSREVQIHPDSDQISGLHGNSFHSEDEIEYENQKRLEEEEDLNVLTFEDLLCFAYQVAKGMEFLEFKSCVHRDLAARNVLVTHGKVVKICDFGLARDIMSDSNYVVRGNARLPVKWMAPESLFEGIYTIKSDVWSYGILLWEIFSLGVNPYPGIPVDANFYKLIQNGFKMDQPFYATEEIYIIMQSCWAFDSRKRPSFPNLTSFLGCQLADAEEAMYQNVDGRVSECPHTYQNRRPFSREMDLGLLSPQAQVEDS
Protocol: FIG. 3 illustrates the effect of the compounds of Examples 5 to 7 on Ba/F3 cells expressing Flt3 kinase. Results for imatinib (negative control) and quizartinib (positive control) are also provided.
as §1, §2, §3

Flt3 = target: T2, Flt3 (Homo sapiens, UniProt P36888); test: In vitro kinase assay ([γ-33P]-ATP); format: biochemical; conditions: ATP at apparent ATP-Km of the kinase
T2 sequence (P36888 27-993): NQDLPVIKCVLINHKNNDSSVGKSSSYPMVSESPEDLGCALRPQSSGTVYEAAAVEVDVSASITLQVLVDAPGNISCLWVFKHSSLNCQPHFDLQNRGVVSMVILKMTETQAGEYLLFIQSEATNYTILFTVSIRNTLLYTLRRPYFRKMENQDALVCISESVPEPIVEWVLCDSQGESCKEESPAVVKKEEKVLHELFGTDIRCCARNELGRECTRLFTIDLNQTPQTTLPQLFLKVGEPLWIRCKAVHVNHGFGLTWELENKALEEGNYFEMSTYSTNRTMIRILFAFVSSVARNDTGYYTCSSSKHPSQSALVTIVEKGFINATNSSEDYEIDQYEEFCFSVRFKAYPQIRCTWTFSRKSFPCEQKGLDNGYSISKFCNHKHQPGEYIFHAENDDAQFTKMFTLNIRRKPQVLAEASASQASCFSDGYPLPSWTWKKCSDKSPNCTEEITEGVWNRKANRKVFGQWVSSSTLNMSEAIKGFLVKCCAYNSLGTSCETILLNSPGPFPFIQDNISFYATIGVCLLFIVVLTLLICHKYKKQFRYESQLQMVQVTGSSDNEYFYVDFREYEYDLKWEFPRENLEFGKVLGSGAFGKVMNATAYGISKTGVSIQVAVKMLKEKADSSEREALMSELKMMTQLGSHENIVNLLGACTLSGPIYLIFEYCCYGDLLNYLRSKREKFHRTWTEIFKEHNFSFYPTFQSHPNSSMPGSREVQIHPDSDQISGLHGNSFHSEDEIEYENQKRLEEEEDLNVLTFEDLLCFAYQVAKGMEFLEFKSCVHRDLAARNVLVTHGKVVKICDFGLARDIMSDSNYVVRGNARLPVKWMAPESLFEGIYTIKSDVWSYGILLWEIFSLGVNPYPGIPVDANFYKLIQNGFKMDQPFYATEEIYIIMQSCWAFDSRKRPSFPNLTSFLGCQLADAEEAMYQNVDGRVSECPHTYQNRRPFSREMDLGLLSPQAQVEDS
Protocol: (§4) To determine the inhibitory activity of compounds, in vitro kinase assays were performed on respective enzymes purified from Sf9 insect cells or E. coli as recombinant GST-fusion proteins or His-tagged proteins.

CDK8 = CDK8 (Homo sapiens, UniProt P49336); test: In vitro kinase assay ([γ-33P]-ATP); format: biochemical; conditions: ATP at apparent ATP-Km of the kinase
Chain of CDK8 (P49336 whole entry): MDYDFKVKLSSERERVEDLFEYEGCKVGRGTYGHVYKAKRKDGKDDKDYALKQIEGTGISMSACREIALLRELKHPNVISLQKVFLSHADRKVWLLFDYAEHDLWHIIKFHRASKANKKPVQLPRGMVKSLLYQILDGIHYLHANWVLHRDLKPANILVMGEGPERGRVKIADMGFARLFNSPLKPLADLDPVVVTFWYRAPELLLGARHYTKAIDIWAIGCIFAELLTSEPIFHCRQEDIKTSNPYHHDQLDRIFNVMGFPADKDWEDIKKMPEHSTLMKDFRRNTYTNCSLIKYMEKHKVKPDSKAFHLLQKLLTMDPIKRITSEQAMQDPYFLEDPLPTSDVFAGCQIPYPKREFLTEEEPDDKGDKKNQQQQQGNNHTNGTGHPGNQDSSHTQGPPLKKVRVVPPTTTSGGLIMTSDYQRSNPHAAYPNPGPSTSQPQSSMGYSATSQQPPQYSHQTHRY
Chain of CDK8 (P24863 whole entry partner): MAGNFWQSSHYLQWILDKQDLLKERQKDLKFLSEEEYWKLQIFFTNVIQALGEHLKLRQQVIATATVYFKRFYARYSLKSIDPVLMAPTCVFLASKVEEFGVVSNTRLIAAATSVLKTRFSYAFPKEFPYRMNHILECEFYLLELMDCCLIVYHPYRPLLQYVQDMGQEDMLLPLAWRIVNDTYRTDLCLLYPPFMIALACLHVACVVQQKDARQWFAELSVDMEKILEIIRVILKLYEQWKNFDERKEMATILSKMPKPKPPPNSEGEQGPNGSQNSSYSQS
Protocol: as §4

CDK19 = CDK19 (Homo sapiens, UniProt Q9BWU1); test: In vitro kinase assay ([γ-33P]-ATP); format: biochemical; conditions: ATP at apparent ATP-Km of the kinase
Chain of CDK19 (Q9BWU1 whole entry): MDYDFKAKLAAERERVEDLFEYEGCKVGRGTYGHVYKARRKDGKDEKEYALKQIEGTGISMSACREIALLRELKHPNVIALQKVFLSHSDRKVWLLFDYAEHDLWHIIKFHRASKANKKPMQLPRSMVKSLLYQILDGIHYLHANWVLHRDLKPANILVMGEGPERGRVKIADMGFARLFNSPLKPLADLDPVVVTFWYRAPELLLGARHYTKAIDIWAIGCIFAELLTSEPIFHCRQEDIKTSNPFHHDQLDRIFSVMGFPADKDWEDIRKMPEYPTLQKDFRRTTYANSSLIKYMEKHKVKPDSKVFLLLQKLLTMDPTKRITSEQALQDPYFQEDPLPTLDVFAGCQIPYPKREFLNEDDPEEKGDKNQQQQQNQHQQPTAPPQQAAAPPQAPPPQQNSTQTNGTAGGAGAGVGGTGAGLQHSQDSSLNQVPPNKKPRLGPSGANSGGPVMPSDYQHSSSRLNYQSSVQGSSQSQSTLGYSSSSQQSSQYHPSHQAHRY
Chain of CDK19 (P24863 whole entry partner): as the sequence (P24863 whole entry partner) above
Protocol: as §4

VEGFR-2 = VEGFR-2 (Homo sapiens, UniProt P35968); test: In vitro kinase assay ([γ-33P]-ATP); format: biochemical; conditions: ATP at apparent ATP-Km of the kinase
Chain of VEGFR-2 (P35968 20-1356): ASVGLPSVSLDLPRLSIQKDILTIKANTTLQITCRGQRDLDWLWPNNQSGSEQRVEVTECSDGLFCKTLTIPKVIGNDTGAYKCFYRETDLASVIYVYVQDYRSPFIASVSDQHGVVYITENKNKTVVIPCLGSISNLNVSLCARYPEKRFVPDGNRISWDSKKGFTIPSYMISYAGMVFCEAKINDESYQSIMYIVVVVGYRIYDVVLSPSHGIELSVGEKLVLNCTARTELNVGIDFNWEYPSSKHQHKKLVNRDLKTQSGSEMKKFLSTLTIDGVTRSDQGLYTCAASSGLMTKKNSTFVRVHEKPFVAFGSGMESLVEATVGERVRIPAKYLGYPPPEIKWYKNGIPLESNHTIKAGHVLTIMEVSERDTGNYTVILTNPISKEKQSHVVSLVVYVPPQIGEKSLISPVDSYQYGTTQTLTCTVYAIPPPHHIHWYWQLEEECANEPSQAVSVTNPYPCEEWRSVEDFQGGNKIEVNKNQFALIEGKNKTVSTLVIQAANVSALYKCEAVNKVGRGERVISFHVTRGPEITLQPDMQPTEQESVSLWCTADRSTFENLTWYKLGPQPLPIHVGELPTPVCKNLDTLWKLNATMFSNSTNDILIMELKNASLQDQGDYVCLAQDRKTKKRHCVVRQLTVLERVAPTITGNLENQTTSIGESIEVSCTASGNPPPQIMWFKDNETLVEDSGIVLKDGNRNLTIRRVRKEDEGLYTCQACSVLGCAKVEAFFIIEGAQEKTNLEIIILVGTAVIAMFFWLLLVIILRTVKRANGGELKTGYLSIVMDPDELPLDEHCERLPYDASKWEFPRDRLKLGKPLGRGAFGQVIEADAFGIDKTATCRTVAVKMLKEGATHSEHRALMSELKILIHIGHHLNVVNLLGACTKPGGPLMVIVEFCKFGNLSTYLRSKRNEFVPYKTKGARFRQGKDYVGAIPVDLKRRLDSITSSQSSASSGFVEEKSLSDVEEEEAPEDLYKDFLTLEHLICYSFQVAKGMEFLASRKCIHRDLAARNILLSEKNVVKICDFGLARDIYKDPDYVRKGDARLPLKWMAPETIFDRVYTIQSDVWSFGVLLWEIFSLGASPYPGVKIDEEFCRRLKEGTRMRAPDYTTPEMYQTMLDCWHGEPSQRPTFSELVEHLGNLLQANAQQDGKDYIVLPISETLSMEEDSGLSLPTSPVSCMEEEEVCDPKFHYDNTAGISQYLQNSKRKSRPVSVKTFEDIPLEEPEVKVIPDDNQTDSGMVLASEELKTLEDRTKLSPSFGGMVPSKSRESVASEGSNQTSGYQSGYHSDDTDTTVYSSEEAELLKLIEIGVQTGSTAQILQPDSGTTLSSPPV
Protocol: as §4

PDGFR-β = PDGFR-β (Homo sapiens, UniProt P09619); test: In vitro kinase assay ([γ-33P]-ATP); format: biochemical; conditions: ATP at apparent ATP-Km of the kinase
Chain of PDGFR-β (P09619 33-1106): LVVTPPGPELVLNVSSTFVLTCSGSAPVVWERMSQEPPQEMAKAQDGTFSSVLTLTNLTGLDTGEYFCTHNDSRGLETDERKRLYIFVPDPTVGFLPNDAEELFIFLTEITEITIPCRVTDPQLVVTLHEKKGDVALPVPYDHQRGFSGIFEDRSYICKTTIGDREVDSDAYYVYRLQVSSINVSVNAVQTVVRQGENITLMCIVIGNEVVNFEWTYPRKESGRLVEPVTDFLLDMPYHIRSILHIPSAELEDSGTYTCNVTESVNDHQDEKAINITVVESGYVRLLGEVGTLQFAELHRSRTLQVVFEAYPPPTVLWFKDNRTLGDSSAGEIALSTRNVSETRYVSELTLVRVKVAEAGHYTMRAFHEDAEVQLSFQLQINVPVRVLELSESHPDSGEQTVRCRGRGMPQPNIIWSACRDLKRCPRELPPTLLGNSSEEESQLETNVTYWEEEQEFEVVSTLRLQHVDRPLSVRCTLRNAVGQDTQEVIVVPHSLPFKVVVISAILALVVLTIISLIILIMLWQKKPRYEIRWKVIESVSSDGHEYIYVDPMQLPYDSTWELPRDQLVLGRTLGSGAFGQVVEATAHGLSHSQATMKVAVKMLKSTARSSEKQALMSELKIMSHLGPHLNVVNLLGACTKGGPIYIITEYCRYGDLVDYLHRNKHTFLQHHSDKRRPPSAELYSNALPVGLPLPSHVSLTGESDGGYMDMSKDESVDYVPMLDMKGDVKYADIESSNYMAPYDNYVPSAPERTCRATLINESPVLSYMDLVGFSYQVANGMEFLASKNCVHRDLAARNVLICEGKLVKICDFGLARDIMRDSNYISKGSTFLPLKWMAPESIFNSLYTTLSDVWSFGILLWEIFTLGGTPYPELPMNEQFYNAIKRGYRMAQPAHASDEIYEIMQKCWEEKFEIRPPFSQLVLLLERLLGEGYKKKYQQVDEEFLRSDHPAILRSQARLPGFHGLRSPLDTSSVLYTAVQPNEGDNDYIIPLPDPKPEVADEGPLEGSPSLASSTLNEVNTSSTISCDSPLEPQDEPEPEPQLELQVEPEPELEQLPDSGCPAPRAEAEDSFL
Protocol: as §4

PDGFR-α = PDGFR-α (Homo sapiens, UniProt P16234); test: In vitro kinase assay ([γ-33P]-ATP); format: biochemical; conditions: ATP at apparent ATP-Km of the kinase
Chain of PDGFR-α (P16234 24-1089): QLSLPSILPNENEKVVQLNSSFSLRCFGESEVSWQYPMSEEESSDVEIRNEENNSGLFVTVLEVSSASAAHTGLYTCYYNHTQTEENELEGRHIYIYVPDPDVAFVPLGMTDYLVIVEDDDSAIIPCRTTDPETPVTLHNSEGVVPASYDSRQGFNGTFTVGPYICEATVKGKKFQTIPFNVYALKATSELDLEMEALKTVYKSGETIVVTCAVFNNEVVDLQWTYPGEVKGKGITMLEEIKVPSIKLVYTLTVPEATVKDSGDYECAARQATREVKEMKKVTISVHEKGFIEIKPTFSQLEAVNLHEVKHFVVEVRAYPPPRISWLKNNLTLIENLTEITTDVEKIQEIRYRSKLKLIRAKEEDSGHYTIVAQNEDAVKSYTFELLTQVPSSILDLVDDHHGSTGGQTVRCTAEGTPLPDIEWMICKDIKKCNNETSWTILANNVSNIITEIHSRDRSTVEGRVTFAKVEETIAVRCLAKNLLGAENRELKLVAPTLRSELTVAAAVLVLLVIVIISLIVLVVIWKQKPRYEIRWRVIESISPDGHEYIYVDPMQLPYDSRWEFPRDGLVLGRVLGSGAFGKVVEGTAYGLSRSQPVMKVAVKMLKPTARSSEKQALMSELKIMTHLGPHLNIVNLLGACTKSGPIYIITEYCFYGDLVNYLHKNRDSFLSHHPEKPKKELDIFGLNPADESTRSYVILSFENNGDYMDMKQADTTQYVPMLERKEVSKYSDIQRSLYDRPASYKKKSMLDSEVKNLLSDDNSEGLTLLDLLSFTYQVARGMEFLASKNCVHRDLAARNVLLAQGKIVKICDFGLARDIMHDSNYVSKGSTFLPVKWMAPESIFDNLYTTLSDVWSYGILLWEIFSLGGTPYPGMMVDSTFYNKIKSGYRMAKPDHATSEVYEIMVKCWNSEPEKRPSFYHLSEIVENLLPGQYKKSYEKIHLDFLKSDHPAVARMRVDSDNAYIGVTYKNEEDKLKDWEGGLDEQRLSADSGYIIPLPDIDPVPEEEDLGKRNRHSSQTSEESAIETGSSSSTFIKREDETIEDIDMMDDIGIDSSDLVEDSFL
Protocol: as §4

Row | IC50 (CDK8) | IC50 (CDK19) | IC50 (VEGFR-2) | IC50 (PDGFR-β) | IC50 (PDGFR-α) | Structure (SMILES) | Activity compared to the imatinib and quizartinib controls (cell viability) [1] | Inhibition of PDGFRβ signaling (PDGFRβ autophosphorylation and Shp2 phosphorylation, Western blot) [2] | IC50 [3] | IC50 [1] | IC50 (Flt3)
1 |  |  |  |  |  | Cn1nc(NC(=O)COc2ccc(-c3cnc4ccccn34)cn2)cc1C(F)(F)F [Example 1] | improved activity | able to inhibit PDGFRβ signaling | < 500 nM |  | 
2 |  |  |  |  |  | Cc1ccc(NC(=O)COc2ccc(-c3cnc4ccccn34)cn2)cc1C(F)(F)F [Example 2] |  | able to inhibit PDGFRβ signaling |  | < 500 nM | < 500 nM
3 |  |  |  |  |  | Cc1ccc(NC(=O)COc2ccc(-c3cnc4cnccn34)c(F)n2)cc1C(F)(F)F [Example 7] |  |  | < 500 nM |  | 
4 |  |  |  |  |  | Cn1nc(NC(=O)COc2ccc(-c3cnc4cnccn34)cn2)cc1C(F)(F)F [Example 9] |  |  |  | < 500 nM | 
5 |  |  |  |  |  | Cc1ccc(NC(=O)CNc2ccc(-c3cnc4cnccn34)cc2)cc1C(F)(F)F [Example 15] |  |  | < 500 nM |  | 
6 | < 500 nM | < 500 nM | > 5000 nM | > 5000 nM | > 5000 nM | O=C(Nc1ccc(-c2cnc3cnccn23)cc1)C1(C(=O)Nc2cc(C(F)(F)F)c(Cl)cn2)CC1 [Example 20] |  |  |  |  | > 5000 nM
7 | < 500 nM | < 500 nM | > 5000 nM | > 5000 nM | > 5000 nM | Cn1nc(NC(=O)C2(C(=O)Nc3ccc(-c4cnc5cnccn45)cc3)CC2)cc1C(F)(F)F [Example 21] |  |  |  |  | > 5000 nM
8 | < 500 nM | < 500 nM | 500 to 5000 nM | > 5000 nM | > 5000 nM | Cn1nc(NC(=O)C2(C(=O)Nc3ccc(-c4cnc5cnccn45)c(F)c3)CC2)cc1C(F)(F)F [Example 22] |  |  |  |  | > 5000 nM

Row | Structure (SMILES) | IC50 (CDK8) | IC50 (CDK19) | IC50 (VEGFR-2) | IC50 (PDGFR-β) | IC50 (PDGFR-α) | Activity compared to the imatinib and quizartinib controls (cell viability) [1] | Inhibition of PDGFRβ signaling (PDGFRβ autophosphorylation and Shp2 phosphorylation, Western blot) [2] | IC50 [3] | IC50 [1] | IC50 (Flt3)
9 | Cc1cnc(NC(=O)COc2ccc(-c3cnc4cnccn34)cn2)cc1C(F)(F)F [Example 3] | < 500 nM | < 500 nM | < 500 nM | < 500 nM | < 500 nM | improved activity |  |  | < 500 nM | < 500 nM
10 | Cc1cnc(NC(=O)COc2ccc(-c3cnc4ccccn34)cn2)cc1C(F)(F)F [Example 8] | < 500 nM | < 500 nM | < 500 nM | < 500 nM | < 500 nM |  |  |  | < 500 nM | < 500 nM
